Test results as given in patent US20140079636A1, “TARGETED THERAPEUTICS” (priority 2012, published 2014).

Experiment: Tissue distribution of SDC-TRAPs in plasma and tumor (Example 14 extraction procedure)
Conditions: in vivo; Tissue Distribution Data for SDC-TRAP-0076; Time 6 h; read-out: Tumor/Plasma Ratio
Protocol: In order to test the ability SDC-TRAP molecules of the invention to be specifically targeted to tumor cells, the following experiment was performed.
Using the 10 mM stock solutions of the HDC compound and its Hsp90i and drug conjugate in DMSO, spiking solutions were prepared at 0.025, 0.05, 0.1, 0.5, 1, 5, 10, 50, 100, 250, and 500 μM in DMSO. 5 μL of each spiking solution was added to a 96-deep well plate. 50 μL of matrix (plasma thawed over ice or homogenized blank tumor).
Quality control standards were prepared from 5 μL of 0.1, 1, and 10 μM calibration standard spiking solution added in triplicate into 96-deep well plate and adding 50 μL of matrix (plasma or homogenized tumor).
To prepare test samples, test plasma was diluted as needed using blank plasma. Tumor samples were pulverized in liquid nitrogen, weighed, and homogenized in PBS at 5× volume to sample weight. 50 μL of unknown plasma or homogenized tumor sample was mixed with 5 μL of DMSO. The samples were extracted by precipitating calibration standards, QC standards, and unknown samples with 200 μL of internal standard solution. The samples were mixed by vortex at room temperature for approximately 1.5 minutes, then centrifuge at 2-8° C. 150 μL of supernatant was collected and 25 μL of water added. Samples were mixed and analyzed by LC-MS/MS.

CCNC(=O)c1nnc(-c2cc(C(C)C)c(O)cc2O)n1-c1ccc(CN2CCC(C(=O)N3CCC(C(=O)OC4(CC)C(=O)OCc5c4cc4n(c5=O)Cc5c-4nc4ccc(O)cc4c5CC)CC3)CC2)cc1 (stereo not shown) [SDC-TRAP-0076, 4,11-diethyl-9-hydroxy-3,14-dioxo-3,4,12,14-tetrahydro-1H-pyrano[3′,4′:6,7]indolizino[1,2-b]quinolin-4-yl 1-(1-(4-(3-(2,4-dihydroxy-5-isopropylphenyl)-5-(ethylcarbamoyl)-4H-1,2,4-triazol-4-yl)benzyl)piperidine-4-carbonyl)piperidine-4-carboxylate]
Kp: 7.25
